Assay results taken from patent publication US20220296674A1, “CELL PENETRATING PEPTIDES FOR INTRACELLULAR DELIVERY OF MOLECULES” (INSERM (INSTITUT NATIONAL DE LA SANTÉ ET DE LA RECHERCHE …, priority 2019, published 2022).
Where no end group is shown, it is not given here.

Experiments:
various cell lines [1] = assay type: cell-based; details: data not shown
Protocol: (§1) FIG. 4 Lack of toxicity and immunogenicity of hAP10 and hAP10DR. (A) The indicated cells were exposed to increasing concentrations of hAP10 or hAP10DR for 20 h. Viability was then assessed by an MTT assay. Data are means±s.e.m. (n=3). (B) Necrotic cell death was monitored by lactate dehydrogenase (LDH) release from cells into the culture medium. The obtained values were normalized to those of the maximum LDH released (completely lysed) control. Data are means±s.e.m. (n=3). […] Mice red blood cells were incubated with 30 μM of hAP10 or hAP10DR. Released hemoglobin was detected by densitometry at 540 nm. Hemoglobin release by cells treated with 1% Triton X-100 was used as 100% lysis control. (D) Levels of IL-6 secretion from RAW 264.7 cells exposed to 10 μM of hAP10 or hAP10DR or LPS (1 μg/ml) for 24 h. Data are means±s.e.m. (n=3).
(§2) Cells survival was assessed with the CellTiter 96® Aqueous One Solution Cell Proliferation Assay kit (Promega, Madison, Wis.). Necrotic plasma membrane permeabilization was assessed by lactate dehydrogenase (LDH) leakage in the culture medium with the CytoTox 96® Non-Radioactive Cytotoxicity Assay kit (Promega, Madison, Wis.).

various cell lines [2] = assay: Lactate dehydrogenase (LDH) release assay of the shuttle peptides; assay type: cell-based
Protocol: as §1, §2

[3] = system: RAW 264.7 murine macrophages; assay: Immunogenicity assay: IL-6 secretion (ELISA); assay type: cell-based; details: 10 μM peptide or LPS 1 μg/ml, 24 h
Protocol: as §1
RAW 264.7 murine macrophages were seeded (1×10^4 cells/cm^2) in a 24-well plate and allowed to grow for 24 h. Then, cells were left untreated or exposed to the hAP10 or hAP10DR peptides (10 μM) or to LPS (E. Coli O111:b4, 1 μg/ml) as a positive control for 24 h. Levels of IL-6 in the supernatants were analyzed using an Mouse IL-6 Quantikine ELISA Kit (R&D system).

[4] = system: non-malignant (CD3+CD4+TCR-Vβ−) CD4+ T-cells; assay type: cell-based, human
Protocol: (§3) FIG. 7 RT33 and RT33DR specifically induce primary Sézary cells death. Sézary patients' PBMC were incubated with increasing concentrations of the indicated peptides for 4 h at 37° C. Cells were then analyzed by flow cytometry following labeling with anti-TCRVβ-FITC, -CD4-PE, -CD3-PE-Cy7 mAbs and 7-AAD. Data are shown as the means±s.e.m. of the percentage of 7-AAD+apoptotic cells within the following populations: malignant (CD3^+CD4^+TCR-V β^+) and non-malignant (CD3^+CD4^+TCR-Vβ^−) CD4+T-cells and non T-cells (CD3^−), derived from three different patients.
(§4) PBMC exposed or not to RT33 or RT33DR were processed for flow cytometry to assess cell death. Cells were labelled with a mix of anti-TCR-Vβ-FITC, -CD3-PE and -CD4-PECy7 mAbs (Beckman Coulter). Detection of apoptotic cells was performed using 7AAD (BD Biosciences). Cells were analyzed on a CytoFlex cytometer (Beckman Coulter) and data treated with FlowJo software.

non T-cells (CD3−) = assay type: cell-based, human
Protocol: as §3, §4

Mice red blood cells = assay: Hemolysis assay; assay type: cell-based; details: 30 μM, 37° C., 1 h; 1% Triton X-100 = 100% lysis
Protocol: as §1
Mice blood was centrifuged at 2000 rpm for 10 min. Red blood cell pellets were washed five times with PBS and resuspended in normal saline. For each assay, 1×10^7 red blood cells were incubated with or without peptide (30 μM) in normal saline at 37° C. for 1 h. The samples were then centrifuged and the absorbance of the supernatant was measured at 540 nm. To determine the percentage of lysis, absorbance readings were normalized to lysis with 1% Triton X-100.

HaCat = assay: Cell viability (MTT) after RT33 / RT33DR; assay type: cell-based; details: increasing concentrations, 20 h
Protocol: (§5) FIG. 6 RT33 and RT33DR induces cancer cells, but not normal cells, death. (A) Amino-acid sequence of RT33 and RT3DR. hAP10 and hAP10DR sequences are in bold. (B) The indicated cells were exposed to increasing concentrations of RT33 or RT3DR for 20 h. Viability was then assessed by an MTT assay. Data are means±s.e.m. (n=3). (C) HUT78 cells were exposed to increasing concentrations of RT33 or RT3DR for 20 h in the presence and absence of 50 μM zVAD-fmk or 50 μM Necrostatin-1 (Nec-1). Viability was then assessed by an MTT assay. Data are means±s.e.m. (n=3). (D) HUT78 cells were exposed to 20 μM of RT33 or RT33DR for 3 h. Necrotic cell death was monitored by lactate dehydrogenase (LDH) as in FIG. 4 (B). Data are means±s.e.m. (n=3). (E) Ultrastructural analysis of HUT78 cells treated with 15 μM of hAP10 or hAP10DR for 1 h. (F) Structural prediction of RT33 and RT33DR. The segments corresponding to the hAP10 and hAP10DR moieties are in light grey. (G) Cancerous C8161 cells or non-cancerous MRC-5 cells were exposed to FITC-labelled RT33 or RT33DR for 1 h. Cels were then examined by fluorescence microscopy.
as §2

HUT78 = assay: Cell viability (MTT) after RT33 / RT33DR; assay type: cell-based; details: 50 μM zVAD-fmk, 20 h
Protocol: as §5, §2

MRC-5 = assay: Cell viability (MTT) after RT33 / RT33DR; assay type: cell-based; details: increasing concentrations, 20 h
Protocol: as §5, §2

[5] = system: HUT78 Sézary cell line xenograft tumors; assay: Xenograft tumor model of Sézary syndrome; assay type: in vivo; details: systemic administration, single agent
Protocol: FIG. 8 RT33 and RT33DR inhibit tumor growth in vivo in a mouse model for the Sézary syndrome. (A) Mice were engrafted subcutaneously with HUT78 Sézary cell line. Animals with preexisting tumors were treated daily with i.p. injections of RT33 or RT33DRM in normal saline (5 mg/kg) or normal saline as control. Tumors were calipered throughout the study and data were plotted as means±s.e.m. (n=7 mice per group). p<0.005 relative to control. Subsequently, tumors were excised, stripped of non-tumor tissue and tumors volumes were calculated. (B) Representative pictures of H&E staining of tumors treated with RT33, RT33DRM, or normal saline. The scale bar represents 500 μm.
Animal experiments were approved by The University Board Ethics Committee for Experimental Animal Studies (#2303.01). Xenograft tumors were obtained by subcutaneous injection of 10^6 HUT78 cells in the right flank of 8-week-old female NOD-SCID-gamma (NSG) mice, bred and housed under pathogen-free conditions at our animal facility (IUH, Saint Louis Hospital, Paris, France). Treatment started after randomization when tumors were visible and consisted of daily intraperitoneal (i.p.) injection of normal saline or RT33 or RT33DR in normal saline (n=5 per group). Tumor volume was measured every other day and calculated as: long axis X short axis^2 ×0.5. […]

U2OS cells = assay: Live cell fluorescence microscopy of FITC-labelled peptides; assay type: cell-based; details: 5 μM FITC-labelled peptide, 1 h
Protocol: FIG. 2 Cellular uptake of hAP10 and hAP10DR. (A) HUT78 cells were incubated with 5 μM of FITC-labelled hAP10 and hAP10DR or penetratin and TAT as controls for 1 h in complete medium. Cells were then washed with PBS, incubated in trypsin-EDTA solution (0.01% trypsin) at 37° C. for 10 min, resuspended in PBS and subjected to flow cytometry (right). Left: Bar diagram representing the uptake of the FITC-labelled peptides as mean cellular fluorescence from the flow cytometry analysis of live cells positive for FITC. Data are means±s.e.m. (n=3). (B) Fluorescence quantification of FITC-labelled hAP10 and hAP10DR uptaken in human B lymphocytes. Cells were incubated with 5 μM of FITC-labelled hAP10 and hAP10DR or penetratin and TAT as controls for 1 h in complete medium, washed with PBS and the fluorescence of the cell lysis measured as described in Material and Methods. Data are means±s.e.m. (n=3). (C) Intracellular distribution of FITC-labelled hAP10 and hAP10DR in U2OS cells. U2OS cells grown on coverslips were incubated with 5 μM of FITC-labelled hAP10 and hAP10DR or penetratin and TAT as controls for 1 h in complete medium, washed trice with PBS and live cells were imaged using fluorescence microscopy. […] Following incubation, the cells were washed three times in PBS and imaged using a Zeiss Axiovert 200 M inverted fluorescence microscope.

Substance: AAC-11 specific portion: the AAC-11 specific portion (residues 377-399) alone, without shuttle (LQYFARGLQVYIRQLRLALQGKT; UniProt Q9BZZ5 377-399, looked up, fragment)
- cell viability, AAC-11 portion without shuttle (various cell lines [1]): nor the AAC-11 specific portion alone (not shown) decreased cell viability

Substance: RSRSRDRRRK [hAP10, RSRSRDRRRK]
- LDH activity release in the culture medium (membrane disturbance) (various cell lines [2]): did not induce membrane disturbance
- secreted IL-6 [3]: no significant IL-6 release was detected
- cell viability / cell death of non-tumoral CD4+ T-cells [4]: did not induce cell death
- cell viability / cell death of non-T cell population (non T-cells (CD3−)): did not induce cell death
- hemolytic activity (Mice red blood cells): neither hAP10 nor hAP10DR exhibited hemolytic activity

Substance: RSRSRDRRRKLQYFARGLQVYIRQLRLALQGKT [RT33]
- cell viability / cell death of non-tumoral CD4+ T-cells [4]: neither peptide decreased cell viability
- cell viability / cell death of non-T cell population (non T-cells (CD3−)): neither peptide decreased cell viability
- cell viability of normal cells (HaCat): sparing the normal cells tested
- cytotoxicity in presence of pan-caspase inhibitor zVAD-fmk (HUT78): did not block
- cell viability of normal cells (MRC-5): sparing the normal cells tested
- tolerability in vivo [5]: well tolerated in vivo

Substance: RSRSRRRRRK [hAP10DR, RSRSRRRRRK]
- LDH activity release in the culture medium (membrane disturbance) (various cell lines [2]): did not induce membrane disturbance
- secreted IL-6 [3]: no significant IL-6 release was detected
- cell viability / cell death of non-tumoral CD4+ T-cells [4]: did not induce cell death
- cell viability / cell death of non-T cell population (non T-cells (CD3−)): did not induce cell death
- hemolytic activity (Mice red blood cells): neither hAP10 nor hAP10DR exhibited hemolytic activity

Substance: RSRSRRRRRKLQYFARGLQVYIRQLRLALQGKT [RT33DR]
- cell viability / cell death of non-tumoral CD4+ T-cells [4]: neither peptide decreased cell viability
- cell viability / cell death of non-T cell population (non T-cells (CD3−)): neither peptide decreased cell viability
- cell viability of normal cells (HaCat): sparing the normal cells tested
- cytotoxicity in presence of pan-caspase inhibitor zVAD-fmk (HUT78): did not block
- cell viability of normal cells (MRC-5): sparing the normal cells tested
- tolerability in vivo [5]: well tolerated in vivo

Substance: TAT
- cellular distribution of fluorescence (U2OS cells): both a diffuse and punctuate fluorescence distribution

Substance: lipopolysaccharide [LPS, reference compound]
- secreted IL-6 [3]: elicited a potent cytokine response
